Results: the CheMixHub viscosity set

Assay: xn = mol fraction of the nth substance listed

CC(=O)OCc1ccccc1 + Cc1cccc(O)c1
313.15 K, 101.33 kPa
Conditions	viscosity [mPa·s]
x1 = 0.115	5.114
x1 = 0.272	3.917
x1 = 0.435	3.06
x1 = 0.62	2.337
x1 = 0.81	1.765

CC[n+]1ccn(C)c1.COS(=O)(=O)[O-] + CN1CCCC1=O
101 kPa
Conditions	viscosity [mPa·s]
298.15 K, x1 = 0.243	9.19
298.15 K, x1 = 0.9139	68.9
298.15 K, x1 = 0.9581	76.81
303.15 K, x1 = 0.243	7.33
303.15 K, x1 = 0.282	8.88
308.15 K, x1 = 0.282	6.76
308.15 K, x1 = 0.3482	9.45
313.15 K, x1 = 0.3482	8.19

O=CC(Cl)(Cl)Cl + O
323.15 K, 101 kPa
Conditions	viscosity [mPa·s]
x1 = 0.05	1.031
x1 = 0.1	1.731
x1 = 0.15	2.671
x1 = 0.2	4.156
x1 = 0.25	5.987
x1 = 0.3	8.751
x1 = 0.35	11.36
x1 = 0.4	14.33
x1 = 0.425	15.57
x1 = 0.45	16.37
x1 = 0.465	17.06
x1 = 0.475	17.38
x1 = 0.49	17.26
x1 = 0.5	16.72
x1 = 0.55	14.07
x1 = 0.6	11.39
x1 = 0.7	5.695
x1 = 0.8	2.681
x1 = 0.9	1.447
